Laboratory results taken from article PMC11743353 (Pharmacological Reports, 2024).
Like-named read-outs stand apart in the source and are kept apart here.

Columns and labels:
SARS-CoV-2 [1] = assay: microbe, parasite or virus in culture; format: cell-based; settings: for EC50: Severe acute respiratory syndrome coronavirus 2, Calu-3
SARS-CoV-2 [2] = format: cell-based
MMP-1 [3] = biological target: T1, MMP-1 (Homo sapiens, UniProt P03956); settings: isolated enzyme, fluorometric assay; cited from earlier work
T1 construct: purchased Merck Millipore 444208
T1 sequence (P03956 100-469): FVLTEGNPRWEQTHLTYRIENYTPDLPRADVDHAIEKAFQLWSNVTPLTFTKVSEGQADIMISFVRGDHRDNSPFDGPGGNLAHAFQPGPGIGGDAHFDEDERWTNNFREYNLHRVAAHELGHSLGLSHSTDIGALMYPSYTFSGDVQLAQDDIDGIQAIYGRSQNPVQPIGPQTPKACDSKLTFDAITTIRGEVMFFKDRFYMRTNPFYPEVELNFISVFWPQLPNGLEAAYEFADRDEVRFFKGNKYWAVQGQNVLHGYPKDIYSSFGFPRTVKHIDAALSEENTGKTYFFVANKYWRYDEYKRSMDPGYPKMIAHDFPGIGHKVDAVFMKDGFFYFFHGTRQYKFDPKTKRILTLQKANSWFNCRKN

SARS-CoV-2 [4] = format: cell-based; remark: listed apart in the source
sALCAM release = system: sALCAM release; set-up: method as in PMID 24044434; settings: ovarian cancer cell lines; cited from earlier work
[5] = MTT assay for cell viability; format: cell-based; settings: human, Calu-3 cells, read-out: CC50 (cytotoxic concentration 50%)
CD16 shedding = system: CD16 shedding; set-up: method as in PMID 28192188; settings: 30 µM; PBMC co-cultured with hepatitis C virus-infected HuH7.5 cells; cited from earlier work
[6] = system: ACE2 expression on Calu-3 cell surface; assay: ACE2 immunofluorescence assay on Calu-3 cell surface; format: cell-based, human; settings: Calu-3 cells; for ACE2 expression on cell membranes (immunofluorescence): 25 µM, 24 h and 48 h, compared to untreated
Method: Calu-3 cells were incubated with a specific antibody against human angiotensin-converting enzyme 2 (ACE2) (SN0754 Thermo Fisher; Italy) as previously reported, followed by incubation with the FITC goat antirabbit IgG (H + L) secondary antibody (Thermo Fisher, Milan, Italy). Immunofluorescence was observed by fluorescence microscopy (Nikon Eclipse TE2000S, Milan, Italy). DNA was stained using DAPI (Thermo Fisher, Milan, Italy) to identify cell nuclei and reported as relative fluorescence units (RFU) compared to untreated control sample, by immunofluorescence quantification derived by the analysis of 5 different images derived by biological replicates, using Qupath software. In Brief, for each condition, the percentage of ACE2-positive stained cells was obtained considering the total DAPI-stained nuclei as 100% and then normalized on untreated control sample result and reported as fold difference value.
Considering the role of ACE2 receptor in viral entry into host cells, and the ability of ADAM17 to shed it from cell surface, we analyzed ACE2 expression on Calu-3 cell surface by immunofluorescence after 24 and 48 h of treatment with the three compounds, at the concentration of 25 µM (Fig. 4 and supplementary Figure S1).

SARS-CoV-2 [7] = assay: Plaques analysis (plaque dimension on Vero E6 cells); settings: Vero E6 cells infected with supernatants of treated Calu-3 cells; mean diameter of 10 plaques
Method: In order to assess the levels of infective SARS-CoV-2 released by treated or untreated cells, a plaque assay was performed. Vero E6 were seeded in 12-well plates and infected with serial dilution (10-fold) of the supernatants derived from treated and infected Calu-3 cells. Plaques were visible five days after infection, then cells were methanol-fixed, stained with crystal violet (0.1%) and plaques were manually counted [26] (microscope NeXcope NE620). The experiments were run in triplicate.
After crystal violet (0.1%) staining for antiviral activity assessment, plaques forming unit were identified and measured in size. Dimension of plaques derived by cytopathic effect of SARS-CoV-2 in Vero E6 cells was evaluated by microscopy (NeXcope NE620). For each well, 5 different fields were manually selected, and at least 10 plaques for each condition were identified and measured using NeXcope visualization software (Capture V.2.0) and reported as mean diameter (mm) ± SD.

[8] = biological target: T2, Recombinant human MMP-14 catalytic domain (Homo sapiens, UniProt P50281); assay: Fluorometric enzyme inhibition assay, MMP-14; format: biochemical; settings: isolated enzyme
T2 construct: Recombinant human MMP-14 catalytic domain was a kind gift of Prof; Gillian Murphy; gift of Prof; Gillian Murphy (Department of Oncology, University of Cambridge, UK)

MMP-1 [9] = biological target: T1, MMP-1; assay: Fluorometric enzyme inhibition assay, MMP-1; format: biochemical; settings: isolated enzyme
MMP-9 = biological target: T3, MMP-9 (Homo sapiens, UniProt P14780); assay: Fluorometric enzyme inhibition assay, MMP-9; format: biochemical; settings: isolated enzyme
T3 construct: purchased Merck Millipore PF038

Recombinant human ADAM10 = biological target: T4, Recombinant human ADAM10 (Homo sapiens, UniProt O14672); assay: Fluorometric enzyme inhibition assay, ADAM10; format: biochemical; settings: isolated enzyme
T4 construct: purchased R&D Systems 936-AD
T4 sequence (O14672 214-748): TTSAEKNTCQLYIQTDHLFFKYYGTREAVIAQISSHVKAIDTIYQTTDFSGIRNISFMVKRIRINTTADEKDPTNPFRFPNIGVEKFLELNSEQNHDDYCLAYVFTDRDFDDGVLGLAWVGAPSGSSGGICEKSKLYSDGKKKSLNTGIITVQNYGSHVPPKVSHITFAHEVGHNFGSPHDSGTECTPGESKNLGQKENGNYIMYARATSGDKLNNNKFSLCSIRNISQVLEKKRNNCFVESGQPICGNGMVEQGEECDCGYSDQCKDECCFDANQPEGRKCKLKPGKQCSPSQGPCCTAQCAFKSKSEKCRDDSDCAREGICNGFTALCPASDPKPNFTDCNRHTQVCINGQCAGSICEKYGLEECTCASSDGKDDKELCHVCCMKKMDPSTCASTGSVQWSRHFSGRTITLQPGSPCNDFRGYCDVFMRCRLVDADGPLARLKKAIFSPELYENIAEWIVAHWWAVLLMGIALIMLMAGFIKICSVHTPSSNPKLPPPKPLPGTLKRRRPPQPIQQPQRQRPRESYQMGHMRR

recombinant human ADAM17 = biological target: T5, recombinant human ADAM17 (Homo sapiens, UniProt P78536); assay: Fluorometric enzyme inhibition assay, ADAM17; format: biochemical; settings: isolated enzyme
T5 construct: purchased Merck Millipore PF133

MMP-2 = biological target: T6, MMP-2 (Homo sapiens, UniProt P08253); assay: Fluorometric enzyme inhibition assay, MMP-2; format: biochemical; settings: isolated enzyme
T6 construct: purchased Merck Millipore PF037
T6 sequence (P08253 110-660): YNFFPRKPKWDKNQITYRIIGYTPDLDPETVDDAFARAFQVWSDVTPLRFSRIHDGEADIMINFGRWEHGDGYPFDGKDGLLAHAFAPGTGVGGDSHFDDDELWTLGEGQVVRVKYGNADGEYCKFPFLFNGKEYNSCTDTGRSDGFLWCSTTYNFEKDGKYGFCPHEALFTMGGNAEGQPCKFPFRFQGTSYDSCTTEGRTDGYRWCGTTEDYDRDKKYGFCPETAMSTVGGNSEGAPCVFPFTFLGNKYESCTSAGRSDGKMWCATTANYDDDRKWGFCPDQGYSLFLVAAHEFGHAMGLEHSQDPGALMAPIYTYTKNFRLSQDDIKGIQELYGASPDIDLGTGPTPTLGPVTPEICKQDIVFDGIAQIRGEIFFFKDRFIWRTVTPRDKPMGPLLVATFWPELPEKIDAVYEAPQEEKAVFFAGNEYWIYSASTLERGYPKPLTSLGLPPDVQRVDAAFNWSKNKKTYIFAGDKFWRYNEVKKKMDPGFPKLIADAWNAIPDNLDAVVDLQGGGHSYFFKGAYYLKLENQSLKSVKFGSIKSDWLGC

[10] = using CC50 values after 48 h of treatment

T3 sequence (P14780 107-707 limits assumed): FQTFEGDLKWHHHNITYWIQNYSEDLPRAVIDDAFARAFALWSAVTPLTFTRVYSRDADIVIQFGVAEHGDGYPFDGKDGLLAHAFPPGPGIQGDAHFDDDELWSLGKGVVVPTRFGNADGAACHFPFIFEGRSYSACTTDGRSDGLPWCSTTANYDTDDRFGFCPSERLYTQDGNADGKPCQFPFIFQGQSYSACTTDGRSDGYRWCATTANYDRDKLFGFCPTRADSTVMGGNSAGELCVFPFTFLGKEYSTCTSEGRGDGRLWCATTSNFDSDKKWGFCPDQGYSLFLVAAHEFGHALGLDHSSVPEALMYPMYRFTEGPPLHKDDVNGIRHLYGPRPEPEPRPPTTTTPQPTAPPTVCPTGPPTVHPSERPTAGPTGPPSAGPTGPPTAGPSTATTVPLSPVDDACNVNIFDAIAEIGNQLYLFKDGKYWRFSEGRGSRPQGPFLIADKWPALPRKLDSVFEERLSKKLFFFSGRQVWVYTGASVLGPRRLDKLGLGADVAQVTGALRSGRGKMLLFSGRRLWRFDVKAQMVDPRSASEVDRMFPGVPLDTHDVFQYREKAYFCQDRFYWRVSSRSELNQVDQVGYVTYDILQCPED
T5 sequence (P78536 215-824): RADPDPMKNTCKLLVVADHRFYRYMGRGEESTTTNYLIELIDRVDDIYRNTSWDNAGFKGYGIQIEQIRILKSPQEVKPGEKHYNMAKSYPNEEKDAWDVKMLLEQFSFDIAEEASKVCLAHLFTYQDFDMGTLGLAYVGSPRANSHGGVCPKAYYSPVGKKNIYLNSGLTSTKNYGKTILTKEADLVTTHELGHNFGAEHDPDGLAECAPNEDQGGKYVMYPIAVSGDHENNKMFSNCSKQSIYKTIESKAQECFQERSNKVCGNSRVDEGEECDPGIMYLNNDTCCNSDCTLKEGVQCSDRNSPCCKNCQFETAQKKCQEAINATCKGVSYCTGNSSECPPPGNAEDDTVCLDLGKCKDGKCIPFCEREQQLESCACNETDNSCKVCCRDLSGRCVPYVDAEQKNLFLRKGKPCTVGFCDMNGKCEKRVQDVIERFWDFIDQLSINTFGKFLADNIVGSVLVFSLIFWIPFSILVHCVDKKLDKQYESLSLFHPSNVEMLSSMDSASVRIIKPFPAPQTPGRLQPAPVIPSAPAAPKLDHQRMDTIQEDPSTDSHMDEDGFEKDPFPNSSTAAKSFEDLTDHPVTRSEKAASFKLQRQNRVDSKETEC

With `NC(=O)NCCC[C@@H](NS(=O)(=O)c1ccc(OCc2cc(Br)cc(Br)c2)cc1)C(=O)NO` [JG26] the “SI (selectivity index, CC50/EC50)” value (SARS-CoV-2 [1]) was 13.23, the EC50 (SARS-CoV-2 [1]) was 8.1 µM and the “LR vs DMSO (viral load logarithmic reduction), RT-qPCR” value (SARS-CoV-2 [2]) was 2.37. For the same compound, the IC50 (MMP-1 [3]) was greater than 500 µM, the “LR vs DMSO (viral load logarithmic reduction), plaque assay” value (SARS-CoV-2 [4]) was 1.44 and the “effect on viral infection at lower concentration” value (SARS-CoV-2 [4]) was “did not show any effect”. For the same compound, the “block of sALCAM release” value (sALCAM release) was “able to block sALCAM release”, the CC50 at 24 h [5] was 77.9 µM and the CC50 at 48 h [5] was 107 µM. The “reduction of CD16 shedding” value (CD16 shedding) was “active”, the “ACE2 expression on cell membranes (immunofluorescence)” value [6] was “increased ACE2 expression” and the “Plaque dimension (mm ± SD)” value (SARS-CoV-2 [7]) was 0.42± 0.2 mm.

In the case of `CCCCCCCCCCCCCC(=O)O[C@@H]1[C@@H](C)[C@@]2(O)[C@@H](C=C(CO)C[C@]3(O)C(=O)C(C)=C[C@@H]23)[C@@H]2C(C)(C)[C@]12OC(C)=O` [PMA, Phorbol 12-myristate 13-acetate, reference compound], the “effect on SARS-CoV-2 infection (plaque assay and genome titration)” value (SARS-CoV-2 [4]) is reported as “induced a sensible SARS-CoV-2 infection progression”, the “ACE2 expression (immunofluorescence), ADAM17 inductor control” value ([6]; PMA control, compared to untreated samples) is reported as “slightly decreased ACE2 expression” and the “Plaque dimension (mm ± SD)” value (SARS-CoV-2 [7]) is reported as 0.82± 0.32 mm.

For `O=C(NCCC[C@@H](NS(=O)(=O)c1ccc(OCc2cc(Br)cc(Br)c2)cc1)C(=O)NO)c1cccc(C(=O)NCCC[C@@H](NS(=O)(=O)c2ccc(OCc3cc(Br)cc(Br)c3)cc2)C(=O)NO)c1` [Compound 1], the EC50 (SARS-CoV-2 [1]) is listed as 12.7 µM, the “SI (selectivity index, CC50/EC50)” value (SARS-CoV-2 [1]; [10]) is listed as 8.91 and the IC50 (MMP-1 [3]) is listed as greater than 200 µM. For the same compound, the CC50 at 24 h [5] was 113 µM, the CC50 at 48 h [5] was 113 µM and the “ACE2 expression on cell membranes (immunofluorescence)” value [6] was “increased ACE2 expression”. For the same compound, the “Plaque dimension (mm ± SD)” value (SARS-CoV-2 [7]) was 0.53± 0.19 mm.

For `CC(=O)N[C@@H]1[C@@H](O)[C@H](O)[C@@H](CO)O[C@H]1NC(=S)NCCOCCOCCOCCOCCC(=O)NCCC[C@@H](NS(=O)(=O)c1ccc(OCc2cc(Br)cc(Br)c2)cc1)C(=O)NO` [Compound 2, 1-(((2R, 3R, 4R, 5 S, 6R)-3-acetamido-4,5-dihydroxy-6-(hydroxymethyl)tetrahydro-2 H-pyran-2-yl)amino)-N-((R)-4-(4-((3,5-dibromobenzyl)oxy)phenylsulfonamido)-5-(hydroxyamino)-5-oxopentyl)-1-thioxo-5,8, 11, 14-tetraoxa-2-azaheptadecan-17-amide], the IC50 [8] was 70.7 µM, the IC50 (MMP-1 [9]) was greater than 200 µM and the IC50 (MMP-9) was 1.77 µM. For the same compound, the EC50 (SARS-CoV-2 [1]) was 13.6 µM, the “SI (selectivity index, CC50/EC50)” value (SARS-CoV-2 [1]; [10]) was 5.29 and the IC50 (Recombinant human ADAM10) was 0.81 µM. The IC50 (recombinant human ADAM17) was 0.0055 µM, the IC50 (MMP-2) was 0.32 µM and the CC50 at 24 h [5] was 67.2 µM. For the same compound, the CC50 at 48 h [5] was 72 µM and the “Plaque dimension (mm ± SD)” value (SARS-CoV-2 [7]) was 0.61± 0.23 mm.
